# Data taken from patent publication US20240018146A1, “COMPOSITIONS AND METHODS OF USING THE SAME FOR TREATMENT OF NEURODEGENERATIVE AND MITOCHONDRIAL DISEASE” (MITOKININ, INC., priority 2020, published 2024).
# Read-outs that look alike come from different tables or passages of the source.
# Assays:
# HeLa MKYP cells [1] = assay: Human mitophagy assay (HeLa mKeima assay, FACS); type: cell-based
# Description: Briefly, HeLa MKYP cells were plated at 10,000 cells/well in 96 well plates along with compounds at various concentrations. Following 16 hrs of incubation, cells were treated with 1 uM FCCP/oligomycin for 6 hours, then analyzed via FACS for the presence of mitochondria in lysosomes (as determined by an emissions spectrum shift from the pH-sensitive mtKeima tag).
# Briefly, HeLa cells expressing a mitophagy indicator (mtKeima) protein were treated with […] of FCCP and Oligomycin followed by the specified dose of compound, then analyzed by FACS to quantify the percentage of cells undergoing mitophagy.
# HeLa MKYP cells [2] = assay: Cell death measured by DAPI staining, with 1 μM FCCP/oligomycin or no toxin (no FO); type: cell-based; settings: for Max cell death at 25 μM compound, 1 uM FO (%) / Cell death at 25 μM (no FO) (%): 25 μM compound
# Description: EP-0035985, EP-0037821, EP-0038098, and EP-0038099 in the presence of 1 μM FCCP/oligomycin or with no toxin (no FO) for 6 hrs. H2O2 treatment was performed as a control for cell death as measured by DAPI staining.
# EP-0035985, EP-0038461, EP-0038463, and EP-0038503 in the presence of 1 μM FCCP/oligomycin or with no toxin (no FO) for 6.5 hrs. H2O2 treatment was performed as a control for cell death as measured by DAPI staining.
# EP-0035985, EP-0038504, EP-0038508, and EP-0038521 in the presence of 1 μM FCCP/oligomycin or with no toxin (no FO) for 6.5 hrs. H2O2 treatment was performed as a control for cell death as measured by DAPI staining.
# EP-0035985, EP-0038461, EP-0038463, EP-0038503, EP-0038504, EP-0038508, and EP-0038521 in the presence of 1 μM FCCP/oligomycin or with no toxin (no FO) for 6.5 hrs. H2O2 treatment was performed as a control for cell death as measured by DAPI staining.
# [3] = Homo sapiens, HeLa, read-out: Mitophagy induction EC50
# [4] = read-out: Mitophagy induction EC50
# [5] = Homo sapiens, HeLa, HeLa mKeima assay, read-out: Mitophagy EC50 (HeLa mKeima assay)
Compound,EC50 (HeLa MKYP cells [1]; [3]) [µM],Highest safe dose (cytotoxicity; no FO; safe means DAPI+ <20%) (HeLa MKYP cells [2]) [µM],Max % death with 1 μM FO (HeLa MKYP cells [2]) [%],EC50 (HeLa MKYP cells [1]; [4]) [µM],EC50 (HeLa MKYP cells [1]; [5]) [µM],"Max cell death at 25 μM compound, 1 uM FO (%) (HeLa MKYP cells [2])",Cell death at 25 μM (no FO) (%) (HeLa MKYP cells [2])
"CC(C)(O)C1CN([C@H]2COc3ccccc3[C@@H]2Nc2ncnc3[nH]c(C(F)(F)F)cc23)C1 (single isomer, unassigned) [EP-0041490]",> 25,25.0,3.4,,,,
"COC[C@@H]1CCCN1[C@H]1COc2ccccc2[C@@H]1Nc1ncnc2[nH]c(C(F)(F)F)cc12 (single isomer, unassigned) [EP-0041491]",10.2,25.0,3.7,,,,
"COC[C@H]1CCCN1[C@H]1COc2ccccc2[C@@H]1Nc1ncnc2[nH]c(C(F)(F)F)cc12 (single isomer, unassigned) [EP-0041492]",1.78,25.0,8.3,,,,
"C[S@](=N)(=O)C1CN([C@H]2COc3ccccc3[C@@H]2Nc2ncnc3[nH]c(C(F)(F)F)cc23)C1 (single isomer, unassigned) [EP-0041495]",,25.0,2.9,2.52,,,
"C[S@](=N)(=O)C1CN([C@H]2COc3ccccc3[C@@H]2Nc2ncnc3[nH]c(C(F)(F)F)cc23)C1 (single isomer, unassigned) [EP-0041497]",,25.0,2.6,22,,,
"C[S@@](=N)(=O)C1CN(C2COc3ccccc3C2Nc2ncnc3[nH]c(C(F)(F)F)cc23)C1 (single isomer, unassigned) [EP-0041498]",> 25,25.0,3.7,,,,
"COC[C@@H]1CCN(C2COc3ccccc3C2Nc2ncnc3[nH]c(C4CC4)cc23)C1 (single isomer, unassigned) [EP-0041515]",,25.0,5.6,5.06,,,
"FC(F)(F)c1cc2c(N[C@H]3c4ccccc4OC[C@@H]3N3CCC4(COC4)C3)ncnc2[nH]1 (single isomer, unassigned) [EP-0041516]",3.24,25.0,11.8,,,,
"OC[C@H]1CN([C@H]2COc3ccccc3[C@@H]2Nc2ncnc3[nH]c(C(F)(F)F)cc23)CCO1 (single isomer, unassigned) [EP-0041558]",,25.0,10.6,1.42,,,
"OC[C@H]1CN([C@H]2COc3ccccc3[C@@H]2Nc2ncnc3[nH]c(C(F)(F)F)cc23)CCO1 (single isomer, unassigned) [EP-0041559]",,25.0,3.7,10.3,,,
"OC[C@@H]1CN([C@H]2COc3ccccc3[C@@H]2Nc2ncnc3[nH]c(C(F)(F)F)cc23)CCO1 (single isomer, unassigned) [EP-0041585]",16.1,25.0,6.6,,,,
"OC[C@@H]1CN([C@H]2COc3ccccc3[C@@H]2Nc2ncnc3[nH]c(C(F)(F)F)cc23)CCO1 (single isomer, unassigned) [EP-0041586]",,25.0,10.7,9.59,,,
"c1ccc2c(c1)OCC(N1CC3CCOC3C1)C2Nc1ncnc2[nH]c(C3CC3)cc12 (single isomer, unassigned) [EP-0041667]",,25.0,3.1,> 25,,,
"c1ccc2c(c1)OCC(N1CC3CCOC3C1)C2Nc1ncnc2[nH]c(C3CC3)cc12 (single isomer, unassigned) [EP-0041669]",,25.0,2.5,> 25,,,
Fc1ccc2c(c1)CC[C@@H](N1CCOCC1)[C@@H]2Nc1ncnc2[nH]c(C3CC3)cc12 [EP-0039747],9.31,25.0,24.4,,9.31,24.4,12.9
N#Cc1cn([C@@H]2CCc3ccccc3[C@@H]2Nc2ncnc3[nH]c(C(F)(F)F)cc23)cn1 [EP-0039748],8.07,25.0,6.5,,,,
FC(F)(F)c1cc2c(N[C@H]3c4ccccc4C[C@@H]3N3C[C@H]4COC[C@H]4C3)ncnc2[nH]1 [EP-0039754],> 25,25.0,17.7,,,,
c1ccc2c(c1)C[C@H](N1C[C@H]3COC[C@H]3C1)[C@H]2Nc1ncnc2[nH]c(C3CC3)cc12 [EP-0040075],> 25,25.0,6.5,,,,
FC(F)(F)c1cc2c(N[C@H]3c4ccccc4OC[C@@H]3N3CCOCC3)ncnc2[nH]1 [EP-0040078],1.9,25.0,18.5,,1.77,18,5.92
FC(F)(F)c1cc2c(N[C@H]3c4ccccc4OC[C@H]3N3CCOCC3)ncnc2[nH]1 [EP-0040084],15.6,25.0,3.7,,,,
OC[C@@H]1CCCN1[C@H]1CCc2ccccc2[C@@H]1Nc1ncnc2[nH]c(C3CC3)cc12 [EP-0040085],> 25,8.3,38.1,,,,
FC(F)(F)c1cc2c(N[C@H]3c4ccccc4CC[C@@H]3N3CCCOCC3)ncnc2[nH]1 [EP-0040139],3.66,25.0,8.5,,,,
c1ccc2c(c1)OC[C@@H](N1CCOCC1)[C@H]2Nc1ncnc2[nH]c(C3CC3)cc12 [EP-0040140],8.71,25.0,11.1,,,,
FC(F)(F)c1cc2c(N[C@@H]3c4ccccc4OC[C@H]3N3CCOCC3)ncnc2[nH]1 [EP-0040252],1.11,25.0,9.1,,,,
Fc1ccc2c(c1)OC[C@H](N1CCOCC1)[C@H]2Nc1ncnc2[nH]c(C3CC3)cc12 [EP-0040500],0.99,25.0,8.6,,,,
C[C@@]12COC[C@]1(C)CN(C1CCc3ccccc3C1Nc1ncnc3[nH]c(C(F)(F)F)cc13)C2 (stereo partly drawn) [EP-0040523],2.73,25.0,39.0,,,,
C[C@@]12COC[C@]1(C)CN(C1COc3ccccc3C1Nc1ncnc3[nH]c(C(F)(F)F)cc13)C2 (stereo partly drawn) [EP-0040524],2.68,25.0,27.7,,,,
C[C@@]12COC[C@]1(C)CN(C1CCc3ccccc3C1Nc1ncnc3[nH]c(C4CC4)cc13)C2 (stereo partly drawn) [EP-0040542],1.45,25.0,15.3,,,,
FC(F)(F)c1cc2c(NC3c4ccccc4OCC3N3CCC4(CCOC4)CC3)ncnc2[nH]1 (stereo not drawn) [EP-0040545],> 25,25.0,3.7,,,,
